Calls of active or inactive are those of the source. No cut-off for these calls is given here.
Columns and labels:
[1] = tested on: Rattus norvegicus; assay: Effect on ventral prostate weight with reference to control in Wistar rat at 10 mg/kg/day, po; conditions: Prostate gland
[2] = molecular target: T1, Androgen receptor (Homo sapiens, UniProt P10275)
T1 sequence (P10275 whole entry): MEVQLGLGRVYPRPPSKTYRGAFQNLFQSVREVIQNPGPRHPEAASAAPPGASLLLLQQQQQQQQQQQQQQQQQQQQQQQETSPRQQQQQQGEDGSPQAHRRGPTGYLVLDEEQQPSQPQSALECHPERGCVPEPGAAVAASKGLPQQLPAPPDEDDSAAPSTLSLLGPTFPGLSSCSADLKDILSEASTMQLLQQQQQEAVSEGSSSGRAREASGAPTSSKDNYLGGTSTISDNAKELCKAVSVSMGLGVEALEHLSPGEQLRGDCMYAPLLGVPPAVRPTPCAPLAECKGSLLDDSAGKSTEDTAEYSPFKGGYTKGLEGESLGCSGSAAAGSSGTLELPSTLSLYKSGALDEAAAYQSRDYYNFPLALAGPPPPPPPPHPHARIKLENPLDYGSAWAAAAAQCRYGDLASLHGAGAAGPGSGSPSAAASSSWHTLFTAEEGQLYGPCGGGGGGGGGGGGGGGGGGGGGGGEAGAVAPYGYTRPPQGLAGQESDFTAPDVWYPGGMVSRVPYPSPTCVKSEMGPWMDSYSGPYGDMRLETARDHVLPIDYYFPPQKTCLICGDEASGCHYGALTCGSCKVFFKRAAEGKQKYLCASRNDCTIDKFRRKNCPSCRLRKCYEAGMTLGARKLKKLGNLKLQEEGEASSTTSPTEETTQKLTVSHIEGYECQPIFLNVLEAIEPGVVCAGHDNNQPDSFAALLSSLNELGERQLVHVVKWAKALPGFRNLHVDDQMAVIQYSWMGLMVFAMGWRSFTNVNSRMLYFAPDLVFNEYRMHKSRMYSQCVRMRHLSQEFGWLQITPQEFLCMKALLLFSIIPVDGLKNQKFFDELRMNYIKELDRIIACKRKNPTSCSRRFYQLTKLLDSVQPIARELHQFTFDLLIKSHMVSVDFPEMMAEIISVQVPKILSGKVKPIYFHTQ
Description: Inhibition of AR mediated transcriptional activation using reporter assay

[3] = tested on: Rattus norvegicus; assay: Effect on ventral prostate weight with reference to control in Wistar rat at 10 mg/kg/day, po; format: functional, Prostate gland; conditions: for inhibition in vivo at 10 mg/kg/day: Rattus norvegicus, Wistar; for inhibition in vivo at 10 mg/kg/day / inhibition: Prostate gland
[4] = Cmax in rat ventral prostate at 3 mg/kg, po; format: ADME, organism-based, Prostate gland; parameters: dose 3 mg/kg, route oral
[5] = Cmax in rat hypothalamus at 3 mg/kg, po; format: ADME, organism-based; parameters: dose 3 mg/kg, route oral
[6] = molecular target: T2, Glucocorticoid receptor (Homo sapiens, UniProt P04150); assay: Inhibition of human GR
T2 sequence (P04150 whole entry): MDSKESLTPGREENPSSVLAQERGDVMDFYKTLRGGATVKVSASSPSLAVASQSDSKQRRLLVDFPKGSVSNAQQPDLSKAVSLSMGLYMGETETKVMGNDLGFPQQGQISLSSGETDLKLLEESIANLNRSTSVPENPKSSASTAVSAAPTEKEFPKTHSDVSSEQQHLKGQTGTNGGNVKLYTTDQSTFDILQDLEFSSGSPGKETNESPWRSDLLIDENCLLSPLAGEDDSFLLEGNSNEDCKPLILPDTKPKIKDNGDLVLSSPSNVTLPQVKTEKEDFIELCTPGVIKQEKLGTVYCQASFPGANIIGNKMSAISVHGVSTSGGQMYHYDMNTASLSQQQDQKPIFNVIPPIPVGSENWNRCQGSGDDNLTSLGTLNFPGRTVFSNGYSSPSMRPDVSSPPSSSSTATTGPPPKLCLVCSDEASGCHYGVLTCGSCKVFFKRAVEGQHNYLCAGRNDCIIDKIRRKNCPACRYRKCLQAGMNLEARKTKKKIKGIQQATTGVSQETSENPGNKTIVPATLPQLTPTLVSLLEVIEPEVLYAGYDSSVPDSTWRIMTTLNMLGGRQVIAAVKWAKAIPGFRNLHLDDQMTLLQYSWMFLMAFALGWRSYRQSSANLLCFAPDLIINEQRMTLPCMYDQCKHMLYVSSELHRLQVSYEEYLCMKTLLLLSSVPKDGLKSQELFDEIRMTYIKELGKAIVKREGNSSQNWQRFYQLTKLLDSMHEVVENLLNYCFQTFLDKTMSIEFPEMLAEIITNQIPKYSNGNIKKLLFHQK

[7] = Half life in rat hypothalamus at 3 mg/kg, po; format: ADME, organism-based; parameters: dose 3 mg/kg, route oral
[8] = Oral clearance in rat hypothalamus at 3 mg/kg, po; format: ADME, organism-based; parameters: dose 3 mg/kg, route oral
[9] = molecular target: T3, Progesterone receptor (Rattus norvegicus, UniProt Q63449); assay: Inhibition of rat PR
T3 sequence (Q63449 whole entry): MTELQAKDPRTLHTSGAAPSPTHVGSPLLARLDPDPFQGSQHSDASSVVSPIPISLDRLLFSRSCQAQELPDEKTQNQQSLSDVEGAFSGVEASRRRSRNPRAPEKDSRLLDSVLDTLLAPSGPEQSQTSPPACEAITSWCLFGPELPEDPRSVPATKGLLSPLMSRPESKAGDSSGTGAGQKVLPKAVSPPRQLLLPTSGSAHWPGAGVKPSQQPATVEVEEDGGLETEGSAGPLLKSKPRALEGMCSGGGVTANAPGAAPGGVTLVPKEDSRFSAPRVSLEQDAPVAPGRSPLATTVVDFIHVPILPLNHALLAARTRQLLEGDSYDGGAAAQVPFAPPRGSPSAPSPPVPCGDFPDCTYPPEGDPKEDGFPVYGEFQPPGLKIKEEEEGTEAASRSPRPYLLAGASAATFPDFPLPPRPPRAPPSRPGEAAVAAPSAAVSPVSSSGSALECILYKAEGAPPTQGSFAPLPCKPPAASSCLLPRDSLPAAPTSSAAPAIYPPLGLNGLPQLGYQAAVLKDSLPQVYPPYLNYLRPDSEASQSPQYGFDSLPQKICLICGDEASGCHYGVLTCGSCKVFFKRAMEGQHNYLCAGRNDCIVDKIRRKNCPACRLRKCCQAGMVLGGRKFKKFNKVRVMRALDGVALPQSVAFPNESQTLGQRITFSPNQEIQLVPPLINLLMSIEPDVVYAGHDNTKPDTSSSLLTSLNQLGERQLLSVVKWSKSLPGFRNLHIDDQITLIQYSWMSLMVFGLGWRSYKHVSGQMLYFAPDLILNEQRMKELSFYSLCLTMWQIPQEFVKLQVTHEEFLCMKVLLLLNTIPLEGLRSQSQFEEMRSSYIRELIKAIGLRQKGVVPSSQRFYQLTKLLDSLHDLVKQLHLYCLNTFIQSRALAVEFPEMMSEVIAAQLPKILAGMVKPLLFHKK

[10] = Half life in rat plasma at 3 mg/kg, po; format: ADME, organism-based; parameters: dose 3 mg/kg, route oral
[11] = Half life in rat ventral prostate at 3 mg/kg, po; format: ADME, organism-based, Prostate gland; parameters: dose 3 mg/kg, route oral
[12] = Cmax in rat plasma at 3 mg/kg, po; format: ADME, organism-based; parameters: dose 3 mg/kg, route oral
[13] = AUC (0-72)hrs in rat hypothalamus at 3 mg/kg, po; format: ADME, organism-based; parameters: time < 72 hr, dose 3 mg/kg, route oral
[14] = Oral clearance in rat ventral prostate at 3 mg/kg, po; format: ADME, organism-based, Prostate gland; parameters: dose 3 mg/kg, route oral
[15] = Oral clearance in rat at 3 mg/kg, po; format: ADME, organism-based; parameters: dose 3 mg/kg, route oral; conditions: in vivo
[16] = tested on: Rattus norvegicus; assay: Effect on ventral prostate weight with reference to control in Wistar rat at 100 mg/kg/day; format: ADME, organism-based, Prostate gland; conditions: in vivo
[17] = AUC (0-72)hrs in rat plasma at 3 mg/kg, po; format: ADME, organism-based; parameters: time < 72 hr, dose 3 mg/kg, route oral
[18] = AUC (0-72)hrs in rat ventral prostate at 3 mg/kg, po; format: ADME, organism-based, Prostate gland; parameters: time < 72 hr, dose 3 mg/kg, route oral

SMILES	IC50 [2] [nM]	inhibition in vivo at 10 mg/kg/day [3] [%]	further results
C[C@@H]1CN(c2ccc(C#N)c(C(F)(F)F)c2)[C@@H](C)CN1C(=O)Nc1ccc(F)cc1F	200	–	inhibition [1]: inactive
C[C@@H]1CN(C(=O)Nc2ccc(C(F)(F)F)nc2)[C@@H](C)CN1c1ccc(C#N)c(C(F)(F)F)c1	–	–	inhibition [1]: inactive
Cc1ncccc1NC(=O)N1C[C@H](C)N(c2ccc(C#N)c(C(F)(F)F)c2)C[C@H]1C (racemic)	680	–	–
C[C@@H]1CN(c2ccc(C#N)c(C(F)(F)F)c2)[C@@H](C)CN1C(=O)Nc1ccncc1 (racemic)	–	39	–
C[C@@H]1CN(c2ccc(C#N)c(C(F)(F)F)c2)[C@@H](C)CN1C(=O)Nc1ccc(C#N)nc1 (racemic)	200	53	–
CSc1ccc(NC(=O)N2C[C@H](C)N(c3ccc(C#N)c(C(F)(F)F)c3)C[C@H]2C)cn1 (racemic)	220	36	–
COc1ncccc1NC(=O)N1C[C@H](C)N(c2ccc(C#N)c(C(F)(F)F)c2)C[C@H]1C (racemic)	190	–	inhibition [1]: inactive
C[C@@H]1CN(c2ccc(C#N)c(C(F)(F)F)c2)[C@@H](C)CN1C(=O)Nc1ccc[n+]([O-])c1 (racemic)	> 10000	–	–
C[C@@H]1CN(c2ccc(C#N)c(C(F)(F)F)c2)[C@@H](C)CN1C(=O)Nc1ccccn1 (racemic)	7800	–	–
Cc1ccc(NC(=O)N2C[C@H](C)N(c3ccc(C#N)c(C(F)(F)F)c3)C[C@H]2C)cn1 (racemic)	130	58	–
COC(=O)c1ccc(NC(=O)N2C[C@H](C)N(c3ccc(C#N)c(C(F)(F)F)c3)C[C@H]2C)cn1 (racemic)	470	–	inhibition [3]: inactive
Cc1ccncc1NC(=O)N1C[C@H](C)N(c2ccc(C#N)c(C(F)(F)F)c2)C[C@H]1C (racemic)	330	11	–
CC1CN(c2ccc(C#N)c(C(F)(F)F)c2)C(C)CN1C(=O)Nc1ccc(C(F)(F)F)nc1 (racemic)	–	64	–
C[C@@H]1CN(c2ccc(C#N)c(C(F)(F)F)c2)[C@@H](C)CN1C(=O)Nc1ccc(Cl)nc1 (racemic)	730	52	–
C[C@@H]1CN(c2ccc(C#N)c(C(F)(F)F)c2)[C@@H](C)CN1C(=O)Nc1ccncn1 (racemic)	4600	–	–
C[C@@H]1CN(c2ccc(C#N)c(C(F)(F)F)c2)[C@@H](C)CN1C(=O)Nc1cncnc1 (racemic)	1000	–	–
C[C@@H]1CN(c2ccc(C#N)c(C(F)(F)F)c2)[C@@H](C)CN1C(=O)Nc1ncccn1 (racemic)	> 10000	–	–
C[C@@H]1CN(c2ccc(C#N)c(C(F)(F)F)c2)[C@@H](C)CN1C(=O)Nc1ccc(N)nc1 (racemic)	370	39	–
COc1ccc(NC(=O)N2C[C@H](C)N(c3ccc(C#N)c(C(F)(F)F)c3)C[C@H]2C)cn1 (racemic)	170	52	–
CC(=O)c1ccc(NC(=O)N2C[C@H](C)N(c3ccc(C#N)c(C(F)(F)F)c3)C[C@H]2C)cn1 (racemic)	500	43	–
COc1cncc(NC(=O)N2C[C@H](C)N(c3ccc(C#N)c(C(F)(F)F)c3)C[C@H]2C)c1 (racemic)	440	18	–
Cc1cncc(NC(=O)N2C[C@H](C)N(c3ccc(C#N)c(C(F)(F)F)c3)C[C@H]2C)c1 (racemic)	250	11	–
C[C@@H]1CN(c2ccc(C#N)c(C(F)(F)F)c2)[C@@H](C)CN1C(=O)Nc1ccc(O)nc1 (racemic)	> 10000	–	–
C[C@@H]1CN(c2ccc(C#N)c(C(F)(F)F)c2)[C@@H](C)CN1C(=O)Nc1cccnc1 (racemic)	120	42	–
COc1ccncc1NC(=O)N1C[C@H](C)N(c2ccc(C#N)c(C(F)(F)F)c2)C[C@H]1C (racemic)	–	–	inhibition [3]: inactive
CC(O)(CS(=O)(=O)c1ccc(F)cc1)C(=O)Nc1ccc(C#N)c(C(F)(F)F)c1 (stereo not given) [BICALUTAMIDE]	–	–	Cmax [4]: 1990 ng/mL; Inhibition [3]: 45%; Cmax [5]: 321 ng/mL; Ki [6]: > 100000 nM; half-life [7]: 27.8 h; CL/F [8]: 3.75 mL/min/kg; Ki [9]: 7200 nM; half-life [10]: 22.3 h; half-life [11]: 23.4 h; Cmax [12]: 1410 ng/mL; AUC at 72 h [13]: 10600 ng·h/mL; CL/F [14]: 0.84 mL/min/kg; CL/F [15]: 0.945 mL/min/kg; Activity [16]: 55%; AUC at 72 h [17]: 46900 ng·h/mL; AUC at 72 h [18]: 52500 ng·h/mL
